One may read the Kd as the concentration at which binding is half-saturated. High values mean weaker binding, low ones tighter binding.

Where a chain is given by its changes, count along the chain named. Where only a bound is given, the exact number is not on record here.

Common to all, as to experiment: fluorescence titration of rhodamine-labelled protein
Experiment [1] deals with T1, (K229C,E302C)PBP labeled with 6-IATR (PstS phosphate binding protein) (Escherichia coli, UniProt P0AG82, E327C/G165A/K254C).
T1 sequence (P0AG82 26-346 G165A/K254C/E327C): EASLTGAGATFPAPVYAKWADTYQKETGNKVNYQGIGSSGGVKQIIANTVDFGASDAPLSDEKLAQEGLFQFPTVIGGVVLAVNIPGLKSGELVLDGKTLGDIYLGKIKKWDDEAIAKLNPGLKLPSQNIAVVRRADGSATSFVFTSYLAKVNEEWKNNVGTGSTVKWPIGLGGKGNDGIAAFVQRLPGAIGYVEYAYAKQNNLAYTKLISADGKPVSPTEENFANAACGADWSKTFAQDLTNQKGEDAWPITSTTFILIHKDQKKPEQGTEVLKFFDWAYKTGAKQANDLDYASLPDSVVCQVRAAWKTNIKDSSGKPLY

Experiment [2] addresses T2, rho-PBP: (A17C,A197C)PBP labeled with 6-IATR (PstS phosphate binding protein) (Escherichia coli, UniProt P0AG82, A222C/A42C/R160A).
T2 sequence (P0AG82 26-346 A42C/R160A/A222C): T1 sequence (P0AG82 26-346 G165A/K254C/E327C) with A17C, R135A, A140G, A197C, C229K, C302E

Experiment [3] concerns the target T3, rho-PBP: (A17C,A197C)PBP labeled with 6-IATR (PstS phosphate binding protein) (Escherichia coli, UniProt P0AG82, A222C/A42C/G165A).
T3 sequence (P0AG82 26-346 A42C/G165A/A222C): T1 sequence (P0AG82 26-346 G165A/K254C/E327C) with A17C, A197C, C229K, C302E

In experiment [4] the target is T4, rho-PBP: (A17C,A197C)PBP labeled with 6-IATR (PstS phosphate binding protein) (Escherichia coli, UniProt P0AG82, A222C/A42C/G165A/S189K/S64D).
T4 sequence (P0AG82 26-346 A42C/S64D/G165A/S189K/A222C): T1 sequence (P0AG82 26-346 G165A/K254C/E327C) with A17C, S39D, S164K, A197C, C229K, C302E

Experiment [5] has as its target T5, rho-PBP: (A17C,A197C)PBP labeled with 6-IATR (PstS phosphate binding protein) (Escherichia coli, UniProt P0AG82, A222C/A42C/T35A).
T5 sequence (P0AG82 26-346 T35A/A42C/A222C): T1 sequence (P0AG82 26-346 G165A/K254C/E327C) with T10A, A17C, A140G, A197C, C229K, C302E

Experiment [6] has as its target T6, rho-PBP: (A17C,A197C)PBP labeled with 6-IATR (PstS phosphate binding protein) (Escherichia coli, UniProt P0AG82, A222C/A42C/S63A).
T6 sequence (P0AG82 26-346 A42C/S63A/A222C): T1 sequence (P0AG82 26-346 G165A/K254C/E327C) with A17C, S38A, A140G, A197C, C229K, C302E

Take `O=P(O)(O)O` [inorganic phosphate]: the Kd in experiment [1] was 220 ± 11 µM; in experiment [2] it was less than 1 µM; in experiment [3], 70 ± 17 µM; in experiment [4], 40 ± 4 µM; in experiment [5], 32 ± 2 µM; in experiment [6] it was 68 ± 9 µM.

The values are drawn from article PMC4741387 (Biochemistry, 2015).
